Data on 2 compounds can be found in US10167262B2, “Herbicidal substituted 3-arylpyrazoles” (FMC CORPORATION, priority 2014, dated 2019).

What all share (type): in vivo
Test [1] relates to ducksalad (Heteranthera limosa). The test can be described thus: Test B flooded paddy test, plant response rating 0-100. The conditions noted are these: Flood, 250 g ai/ha; scale 0 to 100 (0 no effect, 100 complete control); 13 to 15 days. The text has this: (§1) At time of treatment, test pots were flooded to 3 cm above the soil surface, treated by application of test compounds directly to the paddy water, and then maintained at that water depth for the duration of the test. Treated plants and controls were maintained in a greenhouse for 13 to 15 days, after which time all species were compared to controls and visually evaluated. […] A dash (-) response means no test result.

Test [2] concerns sedge, umbrella (small-flower umbrella sedge, Cyperus difformis). The test is described as above. The conditions noted are these: Flood, 250 g ai/ha; scale 0 to 100 (0 no effect, 100 complete control); 13 to 15 days.
Text: as §1

The subject of test [3] is rice (Oryza sativa). The test is described as above. The conditions noted are these: Flood, 250 g ai/ha; scale 0 to 100 (0 no effect, 100 complete control); 13 to 15 days.
Text: as §1

The test system of test [4] is barnyardgrass (Echinochloa crus-galli). The test is described as above. The conditions noted are these: Flood, 250 g ai/ha; scale 0 to 100 (0 no effect, 100 complete control); 13 to 15 days.
Text: as §1

The subject of test [5] is wheat (Triticum aestivum). The test can be described thus: Test A pre-/postemergence greenhouse herbicide test, visual injury rating 0-100. The conditions noted are these: 1000 g ai/ha. In a few lines: (§2)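 Greenhouse plants received compound either as directed soil spray at planting or as postemergence spray at the one- to two-leaf stage (2–10 cm). Evaluated after about 10 days by visual comparison with untreated controls.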

Test [6] relates to giant foxtail (Setaria faberii). The test is described as above. The conditions noted are these: 1000 g ai/ha. In a few lines: as §2
Test [7] has as its system morningglory (Ipomoea spp.). Described as above. The conditions noted are these: 1000 g ai/ha. The method, boiled down: as §2
Test [8] deals with corn (Zea mays). The description is as above. The conditions noted are these: 1000 g ai/ha. The method, boiled down:
as §2

Test [9] concerns large (Lg) crabgrass (Digitaria sanguinalis). The description is as above. The conditions noted are these: 1000 g ai/ha. The method, boiled down: as §2
Test [10] has as its system pigweed (Amaranthus retroflexus). The test is described as above. The conditions noted are these: 1000 g ai/ha. In a few lines:
as §2

The test system of test [11] is velvetleaf (Abutilon theophrasti). Described as above. The conditions noted are these: 1000 g ai/ha. In a few lines:
as §2

Test [12] deals with barnyardgrass (Echinochloa crus-galli). Described as above. The conditions noted are these: 1000 g ai/ha. The method, boiled down: as §2

Regarding `Clc1cccc(NN=C(c2ccccc2)c2c[nH]nc2-c2cc(Cl)cc(Cl)c2)c1` [Compound 56], the “Plant response rating, Ducksalad” value in [1] is 0. Also, the “Plant response rating, Sedge, Umbrella” value in test [2] was determined as 0. Also, the “Plant response rating, Rice” value in test [3] is 0. Further, the “Plant response rating, Barnyardgrass” value in test [4] turned out to be 0. The “Plant response rating (0 to 100 scale), Wheat” value in test [5] (Postemergence) and in test [5] (Preemergence) was 0 each time. For the same compound, the “Plant response rating (0 to 100 scale), Foxtail, Giant” value in test [6] (Postemergence) and in test [6] (Preemergence) was 0 each time. Further, the “Plant response rating (0 to 100 scale), Morningglory” value in [7] (Postemergence) and in [7] (Preemergence) was 0 in each case. Further, the “Plant response rating (0 to 100 scale), Corn” value in [8] (Postemergence) and in test [8] (Preemergence) was 0 each time. The “Plant response rating (0 to 100 scale), Crabgrass, Large” value in test [9] (Postemergence) and in test [9] (Preemergence) was 0 each time. Further, the figures for the “Plant response rating (0 to 100 scale), Pigweed” value in test [10] (Postemergence) and in test [10] (Preemergence) were 90 and 100, respectively. Moreover, the “Plant response rating (0 to 100 scale), Velvetleaf” value in test [11] (Postemergence) and in test [11] (Preemergence) was 90 throughout. In addition, the “Plant response rating (0 to 100 scale), Barnyardgrass” value in test [12] (Postemergence) and in test [12] (Preemergence) was 0 throughout.

On to `CCn1cc(C(=O)c2ccccc2)c(-c2cc(F)cc(Cl)c2)n1` [Compound 46], for which, in test [1], the “Plant response rating, Ducksalad” value was found to be 0. In addition, in [2], the “Plant response rating, Sedge, Umbrella” value was 0. The “Plant response rating, Rice” value in test [3] is 0. In addition, the “Plant response rating, Barnyardgrass” value in test [4] was 0. Moreover, the “Plant response rating (0 to 100 scale), Wheat” value in test [5] (Postemergence) and in test [5] (Preemergence) was 0 throughout. Also, the “Plant response rating (0 to 100 scale), Foxtail, Giant” value in test [6] (Postemergence) and in test [6] (Preemergence) was 0 each time. Further, the “Plant response rating (0 to 100 scale), Corn” value in test [8] (Postemergence) and in test [8] (Preemergence) was 0 in each case. Also, the “Plant response rating (0 to 100 scale), Crabgrass, Large” value in test [9] (Postemergence) and in [9] (Preemergence) was 0 in each case. The “Plant response rating (0 to 100 scale), Pigweed” value stood at 90 in test [10] (Postemergence) and 100 in test [10] (Preemergence). Moreover, the “Plant response rating (0 to 100 scale), Velvetleaf” value in [11] (Postemergence) and in [11] (Preemergence) was 90 in each case. Also, the “Plant response rating (0 to 100 scale), Barnyardgrass” value in test [12] (Postemergence) and in test [12] (Preemergence) was 0 throughout.
